Laboratory results as given in paper PMC7311426, “An amphipathic peptide with antibiotic activity against multidrug-resistant Gram-negative bacteria” (Nature Communications, 2020).
Converted amounts (≈) assume the structure as drawn. Read-outs that look alike come from different tables or passages of the source. Residues, ends and D or L forms follow the SMILES beside them.

Assays:
[1] = in vitro; conditions: human
[2] = tested on: HEK-293 human embryonic kidney cells; assay: in vitro
[3] = tested on: HK-2 human kidney proximal tubule cells; assay: in vitro
[4] = tested on: HepG2 liver hepatocellular carcinoma cells; assay: in vitro
[5] = tested on: human primary hepatocytes; assay: Cell viability, human primary hepatocytes (Eurofins Panlabs); assay type: cell-based
Protocol: Cell viability of human primary hepatocytes against AA139 was assessed by fluorometric readout of Alamar Blue following 24 h incubation at 37 °C of human plateable cryopreserved hepatocytes and AA139 as an 8-point dose response, 0.1–300 μM, as described by Nociari et al.[41]. Cell viability was calculated as a percentage of the control cells and plotted versus concentration using Prism 8 Software. The IC50 value was determined by non-linear regression analysis of the concentration–response curve using the Hill equation. Assay was performed by Eurofins Pharma Discovery Services (Panlabs), St Charles, MO, USA, study number 100049990. Source data are provided as a source data file.

[6] = inhalation, mice; for Tmax: relative to end of inhalation
[7] = mouse IP
[8] = 7-day iv MTD toxicity; conditions: minipig
[9] = 7-day DRF inhalation toxicity; conditions: for AUC(0-t) / Cmax: Mouse inhalation, TK dose 20 mg/kg
[10] = Dose range finding & MTD iv toxicity
[11] = tested on: E. coli K12 MG1655; assay: ATP release, BacTiter-Glo luminescence; assay type: cell-based, Escherichia coli; conditions: 60 min
Protocol: ATP was measured using the BacTiter-Glo^TM Microbial Cell Viability Assay (Promega) following the manufacturer’s instructions. The assay was performed for three biological replicates at 37 °C, with luminescence recorded using a Tecan Infinite M1000 Pro plate reader. The fold reduction of ATP was calculated as: Fold reduction ATP = 1 − (Ltreat − Lmedia/Lcontrol − Lmedia); where Ltreat is the luminescence of treated cells, Lmedia is the luminescence of CAMHB without cells, and Lcontrol is the luminescence of untreated cells. Resultant graphs show mean (n = 7) and std error for each data point, prepared in Prism 8. DMSO was included as a control as piperacillin was solubilized in DMSO, with final assay concentration of 2.5%.

[12] = cynomolgus monkey, in vivo, iv, 20 mg/kg

CC(C)[C@@H]1NC(=O)[C@H](Cc2ccc(O)cc2)NC(=O)[C@H](Cc2c[nH]c3ccccc23)NC(=O)[C@@H](NC(=O)[C@H](Cc2ccccc2)NC(=O)CN)CSSC[C@@H](C(=O)N[C@@H](CC(N)=O)C(=O)O)NC(=O)[C@H](CCCNC(=N)N)NC(=O)[C@H](CCCNC(=N)N)NC(=O)[C@H](Cc2ccc(O)cc2)NC(=O)[C@@H]2CSSC[C@H](NC1=O)C(=O)N[C@@H](C)C(=O)N[C@@H](CCCNC(=N)N)C(=O)N[C@@H](CCCNC(=N)N)C(=O)N[C@@H](CC(N)=O)C(=O)NCC(=O)N[C@@H](C)C(=O)N[C@@H](CCCNC(=N)N)C(=O)N[C@@H](C(C)C)C(=O)N2 [AA139] (HELM PEPTIDE1{G.F.C.W.Y.V.C.A.R.R.N.G.A.R.V.C.Y.R.R.C.N}$PEPTIDE1,PEPTIDE1,3:R3-20:R3|PEPTIDE1,PEPTIDE1,7:R3-16:R3$$$V2.0)
CC50 at 24 h ([1]; HEK-293 cells): > 300 µg/mL | CC50 at 24 h ([1]; HK-2 cells): > 250 µg/mL | CC50 at 24 h ([1]; HepG2 cells): > 300 µg/mL | CC50 HEK293, Mean [2]: >300 µg/mL | CC50 HK2 [3]: >255 µg/mL | CC50 HK2, Mean [3]: >250 µg/mL | CC50 HepG2 [4]: >300 µg/mL | CC50 HepG2, Mean [4]: >300 µg/mL | IC50, human primary hepatocytes ([5]; 24 h): 330 µg/mL (≈ 129 µM) | Fold higher hepatocyte IC50 over antibacterial activity against E. coli ([5]; IC50 / MIC): 2400 fold | Fold higher hepatocyte IC50 over antibacterial activity against K. pneumoniae ([5]; IC50 / MIC): 300 fold | AUC(0-t) ([6]; ELF, Day 1, 5 mg kg-1/day): 27,250 ng*h mL-1 | Cmax ([6]; ELF, Day 1, 5 mg kg-1/day): 14,750 ng mL-1 | Tmax ([6]; ELF, Day 1, 5 mg kg-1/day): 30 min | Cmax ([6]; ELF, Day 1, 20 mg kg-1/day): 8,245 ng mL-1 | Tmax ([6]; ELF, Day 1, 20 mg kg-1/day): 78 min | AUC(0-t) ([6]; ELF, Day 1, 40 mg kg-1/day): 63,300 ng*h mL-1 | Cmax ([6]; ELF, Day 1, 40 mg kg-1/day): 36,300 ng mL-1 | Tmax ([6]; ELF, Day 1, 40 mg kg-1/day): 0 min | AUC(0-t) ([6]; ELF, Day 7, 5 mg kg-1/day): 58,650 ng*h mL-1 | Cmax ([6]; ELF, Day 7, 5 mg kg-1/day): 21,100 ng mL-1 | Tmax ([6]; ELF, Day 7, 5 mg kg-1/day): 18 min | Cmax ([6]; ELF, Day 7, 20 mg kg-1/day): 42,350 ng mL-1 | Tmax ([6]; ELF, Day 7, 20 mg kg-1/day): 0 min | AUC(0-t) ([6]; Lung (ng/g), Day 1, 5 mg kg-1/day): 8,585 ng*h mL-1 | AUC(0-t) ([6]; Lung (ng/g), Day 1, 20 mg kg-1/day): 14,411 ng*h mL-1 | AUC(0-t) ([6]; Lung (ng/g), Day 1, 40 mg kg-1/day): 7,002 ng*h mL-1 | AUC(0-t) ([6]; Lung (ng/g), Day 7, 5 mg kg-1/day): 11,802 ng*h mL-1 | AUC(0-t) ([6]; Lung (ng/g), Day 7, 20 mg kg-1/day): 66,791 ng*h mL-1 | Cmax ([6]; Lung, Day 1, 5 mg kg-1/day): 3,935 ng/g | Tmax ([6]; Lung, Day 1, 5 mg kg-1/day): 0 min | Cmax ([6]; Lung, Day 1, 20 mg kg-1/day): 7,691 ng/g | Tmax ([6]; Lung, Day 1, 20 mg kg-1/day): 0 min | Cmax ([6]; Lung, Day 1, 40 mg kg-1/day): 16,162 ng/g | Tmax ([6]; Lung, Day 1, 40 mg kg-1/day): 0 min | Cmax ([6]; Lung, Day 7, 5 mg kg-1/day): 4,228 ng/g | Tmax ([6]; Lung, Day 7, 5 mg kg-1/day): 0 min | Cmax ([6]; Lung, Day 7, 20 mg kg-1/day): 15,133 ng/g | Tmax ([6]; Lung, Day 7, 20 mg kg-1/day): 30 min | Tmax ([6]; Plasma, Day 7, 5 mg kg-1/day): 18 min | Tmax ([6]; Plasma, Day 7, 20 mg kg-1/day): 0 min | Cross species PK, concentration (Fig 6 source data) ([7]; time 0.08 h, replicate 1): 6190 | Cross species PK, concentration (Fig 6 source data) ([7]; time 0.08 h, replicate 3): 3520 | Cross species PK, concentration (Fig 6 source data) ([7]; time 0.5 h, replicate 1): 5370 | Cross species PK, concentration (Fig 6 source data) ([7]; time 0.5 h, replicate 2): 4790 | Cross species PK, concentration (Fig 6 source data) ([7]; time 0.5 h, replicate 3): 6580 | MTD at 168 h ([8]; in vivo, iv): 10 mg/kg | AUC(0-inf) ([8]; in vivo, iv, 10 mg/kg): 36700 ng·h/mL | Cmax ([8]; in vivo, iv, 10 mg/kg): 8700 ng/mL | Target organ toxicity, kidney ([8]; 20, 25, or 30 mg kg^−1 per day by 2 h i.v. infusion for 7 days, dose-related severity): tubular nephropathy present | AUC(0-t) ([9]; Day 1 ELF): 39800 ng·h/mL | Cmax ([9]; Day 1 ELF): 8200 ng/mL | AUC(0-t) ([9]; Day 7 ELF): 137000 ng·h/mL | Cmax ([9]; Day 7 ELF): 42400 ng/mL | NOAEL in mice, aerosol inhalation ([9]; aerosol inhalation over 7 days): 20 mg kg^−1 per day | NOAEL at 168 h ([9]; mouse, in vivo, inhaled or intranasal): 20 mg/kg | AUC(0-t) ([9]; mouse, plasma, inhaled or intranasal, 20 mg/kg, AUC 0-t, Day 1 Plasma): 2600 ng·h/mL | AUC(0-t) ([9]; mouse, plasma, inhaled or intranasal, 20 mg/kg, AUC 0-t, Day 7 Plasma): 1400 ng·h/mL | Cmax ([9]; mouse, plasma, inhaled or intranasal, 20 mg/kg, Cmax, Day 1 Plasma): 950 ng/mL | Cmax ([9]; mouse, plasma, inhaled or intranasal, 20 mg/kg, Cmax, Day 7 Plasma): 470 ng/mL | AUC(0-inf) [10, 12]: 80300 ng·h/mL | Cmax [10, 12]: 15800 ng/mL | NOAEL in monkeys ([10]; i.v. over 2 h QD or BID): 15 mg kg^−1 per day

colistin
Concentration at which maximum ATP release is reached [11]: at its MIC
